Measured values as given in patent US10821115B2, “Compounds that inhibit Mcl-1 protein” (priority 2017, dated 2020).
Where two headings read alike, the source gives them in different places.

What was measured:
[1] = biological target: recombinant human Mcl-1 (residues 171-327) / Bim interaction (Homo sapiens (Human), UniProt Q07820); experiment: biochemical; type: binding; details: TR-FRET, Mcl-1(171-327) / biotin-Bim (51-76); read-out: Mcl-1 HTRF IC50
[2] = test system: human multiple myeloma cell line, OPM-2; experiment: Cell viability assay (OPM-2 10 FBS), CellTiter-Glo; type: cell-based
Outline: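 3000 cells/well, RPMI 1640 + 10% FBS; serial compound dilutions, 16 h, 37 °C/5% CO2.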

[3] = Homo sapiens, OPM-2, 16 h, read-out: OPM-2 10% FBS IC50 IP, OPM-2 cells, 10% FBS, 16 h, CellTiter-Glo
[4] = read-out: OPM-2 10% FBS IC50 IP, OPM-2 cells, 10% FBS, 16 h, CellTiter-Glo

Chain of recombinant human Mcl-1 (residues 171-327) / Bim interaction (Q07820 171-327): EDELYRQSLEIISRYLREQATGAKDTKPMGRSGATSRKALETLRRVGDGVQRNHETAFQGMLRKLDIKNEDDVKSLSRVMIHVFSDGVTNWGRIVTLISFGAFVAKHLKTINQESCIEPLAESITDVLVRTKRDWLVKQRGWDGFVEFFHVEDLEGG

Compound: CO[C@@]1(C[C@@H](C)O)/C=C/C[C@H](C)[C@@H](C)S(=O)(=O)NC(=O)c2ccc3c(c2)N(C[C@@H]2CC[C@H]21)C[C@@]1(CCCc2cc(Cl)ccc21)CO3 [Example 100435, (1S,3′R,6′R,7′S,8′E,11′S,12′R)-6-chloro-7′-((2R)-2-hydroxypropyl)-7′-methoxy-11′,12′-dimethyl-3,4-dihydro-2H,15′H-spiro[naphthalene-1,22′-[20]oxa[13]thia[1,14]diazatetracyclo [14.7.2.0~3,6~.0~19,24~]pentacosa[8,16,18,24]tetraen]-15′-one 13′,13′-dioxide]
- IC50 [1]: 0.055 nM
- IC50 [2, 3]: 305 nM

Compound: CO[C@@]1(C[C@@H](C)O)/C=C/C[C@H](C)[C@@H](C)S(=O)(=O)NC(=O)c2ccc3c(c2)N(C[C@@H]2CC[C@H]21)C[C@@]1(CCCc2cc(Cl)ccc21)CO3 [Example 100436, (1S,3′R,6′R,7′S,8′E,11′S,12′R)-6-chloro-7′-((2R)-2-hydroxypropyl)-7′-methoxy-11′,12′-dimethyl-3,4-dihydro-2H,15′H-spiro[naphthalene-1,22′-[20]oxa[13]thia[1,14]diazatetracyclo [14.7.2.0~3,6~.0~19,24~]pentacosa[8,16,18,24]tetraen]-15′-one 13′,13′-dioxide]
- IC50 [1]: 0.076 nM
- IC50 [2, 4]: 335 nM

Compound: C/C=C/C[C@]1(OC)/C=C/C[C@H](C)[C@@H](C)S(=O)(=O)NC(=O)c2ccc3c(c2)N(C[C@@H]2CC[C@H]21)C[C@@]1(CCCc2cc(Cl)ccc21)CO3 [Example 100438, (1S,3′R,6′R,7′S,8′E,11′S,12′R)-7′-((2E)-2-buten-1-yl)-6-chloro-7′-methoxy-11′,12′-dimethyl-3,4-dihydro-2H,15′H-spiro[naphthalene-1,22′-[20]oxa[13]thia[1,14]diazatetracyclo [14.7.2.0~3,6~.0~19,24~]pentacosa[8,16,18,24]tetraen]-15′-one 13′,13′-dioxide]
- IC50 [1]: 0.169 nM
- IC50 [2, 3]: 547 nM

Compound: C[C@@H]1[C@@H](C)C/C=C/[C@@](O)(C#CCCc2ccccn2)[C@@H]2CC[C@H]2CN2C[C@@]3(CCCc4cc(Cl)ccc43)COc3ccc(cc32)C(=O)NS1(=O)=O [Example 100440, (1S,3′R,6′R,7′S,8′E,11′S,12′R)-6-chloro-7′-hydroxy-11′,12′-dimethyl-7′-(4-(2-pyridinyl)-1-butyn-1-yl)-3,4-dihydro-2H,15′H-spiro[naphthalene-1,22′-[20]oxa[13]thia[1,14]diazatetracyclo [14.7.2.0~3,6~.0~19,24~]pentacosa[8,16,18,24]tetraen]-15′-one 13′,13′-dioxide]
- IC50 [1]: 0.398 nM
- IC50 [2, 4]: 354 nM

Compound: CO[C@@]1(CSC(C)C)/C=C/C[C@H](C)[C@@H](C)S(=O)(=O)NC(=O)c2ccc3c(c2)N(C[C@@H]2CC[C@H]21)C[C@@]1(CCCc2cc(Cl)ccc21)CO3 [Example 100441, (1S,3′R,6′R,7′S,8′E,11′S,12′R)-6-chloro-7′-methoxy-11′,12′-dimethyl-7′-((2-propanylsulfanyl)methyl)-3,4-dihydro-2H,15′H-spiro[naphthalene-1,22′-[20]oxa[13]thia[1,14]diazatetracyclo [14.7.2.0~3,6~.0~19,24~]pentacosa[8,16,18,24]tetraen]-15′-one 13′,13′-dioxide]
- IC50 [1]: 0.133 nM
- IC50 [2, 3]: 154 nM

Compound: CC(C)OC[C@]1(O)/C=C/C[C@H](C)[C@@H](C)S(=O)(=O)NC(=O)c2ccc3c(c2)N(C[C@@H]2CC[C@H]21)C[C@@]1(CCCc2cc(Cl)ccc21)CO3 [Example 100442, (1S,3′R,6′R,7′S,8′E,11′S,12′R)-6-chloro-7′-hydroxy-11′,12′-dimethyl-7′-((2-propanyloxy)methyl)-3,4-dihydro-2H,15′H-spiro[naphthalene-1,22′-[20]oxa[13]thia[1,14]diazatetracyclo [14.7.2.0~3,6~.0~19,24~]pentacosa[8,16,18,24]tetraen]-15′-one 13′,13′-dioxide]
- IC50 [1]: 0.921 nM
- IC50 [2, 3]: 3870 nM

Compound: COCCOC[C@]1(O)/C=C/C[C@H](C)[C@@H](C)S(=O)(=O)NC(=O)c2ccc3c(c2)N(C[C@@H]2CC[C@H]21)C[C@@]1(CCCc2cc(Cl)ccc21)CO3 [Example 100444, (1S,3′R,6′R,7′S,8′E,11′S,12′R)-6-chloro-7′-hydroxy-7′-((2-methoxyethoxy)methyl)-11′,12′-dimethyl-3,4-dihydro-2H,15′H-spiro[naphthalene-1,22′-[20]oxa[13]thia[1,14]diazatetracyclo [14.7.2.0~3,6~.0~19,24~]pentacosa[8,16,18,24]tetraen]-15′-one 13′,13′-dioxide]
- IC50 [1]: 0.098 nM
- IC50 [2, 3]: 646 nM

Compound: COCCOC[C@@]1(O)/C=C/C[C@H](C)[C@@H](C)S(=O)(=O)NC(=O)c2ccc3c(c2)N(C[C@@H]2CC[C@H]21)C[C@@]1(CCCc2cc(Cl)ccc21)CO3 [Example 100445, (1S,3′R,6′R,7′R,8′E,11′S,12′R)-6-chloro-7′-hydroxy-7′-((2-methoxyethoxy)methyl)-11′,12′-dimethyl-3,4-dihydro-2H,15′H-spiro[naphthalene-1,22′-[20]oxa[13]thia[1,14]diazatetracyclo [14.7.2.0~3,6~.0~19,24~]pentacosa[8,16,18,24]tetraen]-15′-one 13′,13′-dioxide]
- IC50 [1]: 0.04 nM
- IC50 [2, 3]: 98 nM

Compound: CO[C@@]1(CC(C)=O)/C=C/C[C@H](C)[C@@H](C)S(=O)(=O)NC(=O)c2ccc3c(c2)N(C[C@@H]2CC[C@H]21)C[C@@]1(CCCc2cc(Cl)ccc21)CO3 [Example 100446, (1S,3′R,6′R,7′S,8′E,11′S,12′R)-6-chloro-7′-methoxy-11′,12′-dimethyl-7′-(2-oxopropyl)-3,4-dihydro-2H,15′H-spiro[naphthalene-1,22′-[20]oxa[13]thia[1,14]diazatetracyclo [14.7.2.0~3,6~.0~19,24~]pentacosa[8,16,18,24]tetraen]-15′-one 13′,13′-dioxide]
- IC50 [1]: 0.126 nM
- IC50 [2, 3]: 345 nM

Compound: CO[C@@]1(CC=C(C)C)/C=C/C[C@H](C)[C@@H](C)S(=O)(=O)NC(=O)c2ccc3c(c2)N(C[C@@H]2CC[C@H]21)C[C@@]1(CCCc2cc(Cl)ccc21)CO3 [Example 100447, (1S,3′R,6′R,7′S,8′E,11′S,12′R)-6-chloro-7′-methoxy-11′,12′-dimethyl-7′-(3-methyl-2-buten-1-yl)-3,4-dihydro-2H,15′H-spiro[naphthalene-1,22′-[20]oxa[13]thia[1,14]diazatetracyclo [14.7.2.0~3,6~.0~19,24~]pentacosa[8,16,18,24]tetraen]-15′-one 13′,13′-dioxide]
- IC50 [1]: 0.05 nM
- IC50 [2, 3]: 184 nM

Compound: CO[C@]1(C#CCN2CCOCC2)/C=C/C[C@H](C)[C@@H](C)S(=O)(=O)NC(=O)c2ccc3c(c2)N(C[C@@H]2CC[C@H]21)C[C@@]1(CCCc2cc(Cl)ccc21)CO3 [Example 100448, (1S,3′R,6′R,7′R,8′E,11′S,12′R)-6-chloro-7′-methoxy-11′,12′-dimethyl-7′-(3-(4-morpholinyl)-1-propyn-1-yl)-3,4-dihydro-2H,15′H-spiro[naphthalene-1,22′-[20]oxa[13]thia[1,14]diazatetracyclo [14.7.2.0~3,6~.0~19,24~]pentacosa[8,16,18,24]tetraen]-15′-one 13′,13′-dioxide]
- IC50 [1]: 0.373 nM
- IC50 [2, 4]: 1920 nM

Compound: CO[C@]1(CCN2CCCCC2)/C=C/C[C@H](C)[C@@H](C)S(=O)(=O)NC(=O)c2ccc3c(c2)N(C[C@@H]2CC[C@H]21)C[C@@]1(CCCc2cc(Cl)ccc21)CO3 [Example 100449, (1S,3′R,6′R,7′R,8′E,11′S,12′R)-6-chloro-7′-methoxy-11′,12′-dimethyl-7′-(2-(1-piperidinyl)ethyl)-3,4-dihydro-2H,15′H-spiro[naphthalene-1,22′-[20]oxa[13]thia[1,14]diazatetracyclo [14.7.2.0~3,6~.0~19,24~]pentacosa[8,16,18,24]tetraen]-15′-one 13′,13′-dioxide]
- IC50 [1]: 0.071 nM
- IC50 [2, 3]: 171 nM

Compound: CO[C@@]1(CC(=O)N(C)C2CCC2)/C=C/C[C@H](C)[C@@H](C)S(=O)(=O)NC(=O)c2ccc3c(c2)N(C[C@@H]2CC[C@H]21)C[C@@]1(CCCc2cc(Cl)ccc21)CO3 [Example 100450, 2-((1S,3′R,6′R,7′S,8′E,11′S,12′R)-6-chloro-7′-methoxy-11′,12′-dimethyl-13′,13′-dioxido-15′-oxo-3,4-dihydro-2H-spiro[naphthalene-1,22′-[20]oxa[13]thia[1,14]diazatetracyclo [14.7.2.0~3,6~.0~19,24~]pentacosa[8,16,18,24]tetraen]-7′-yl)-N-cyclobutyl-N-methylacetamide]
- IC50 [1]: 0.336 nM
- IC50 [2, 3]: 1910 nM

Compound: COC[C@@H](C)N(C)C(=O)C[C@]1(OC)/C=C/C[C@H](C)[C@@H](C)S(=O)(=O)NC(=O)c2ccc3c(c2)N(C[C@@H]2CC[C@H]21)C[C@@]1(CCCc2cc(Cl)ccc21)CO3 [Example 100451, 2-((1S,3′R,6′R,7′S,8′E,11′S,12′R)-6-chloro-7′-methoxy-11′,12′-dimethyl-13′,13′-dioxido-15′-oxo-3,4-dihydro-2H-spiro[naphthalene-1,22′-[20]oxa[13]thia[1,14]diazatetracyclo [14.7.2.0~3,6~.0~19,24~]pentacosa[8,16,18,24]tetraen]-7′-yl)-N-((2R)-1-methoxy-2-propanyl)-N-methylacetamide]
- IC50 [1]: 0.111 nM
- IC50 [2, 3]: 412 nM

Compound: C[C@@H]1[C@@H](C)CCCC(CN2CCOCC2)(CN2CCOCC2)[C@@H]2CC[C@H]2CN2C[C@@]3(CCCc4cc(Cl)ccc43)COc3ccc(cc32)C(=O)NS1(=O)=O [Example 100452, (1S,3′R,6′R,11′S,12′R)-6-chloro-11′,12′-dimethyl-7′,7′-bis(4-morpholinylmethyl)-3,4-dihydro-2H,15′H-spiro[naphthalene-1,22′-[20]oxa[13]thia[1,14]diazatetracyclo [14.7.2.0~3,6~.0~19,24~]pentacosa[16,18,24]trien]-15′-one 13′,13′-dioxide]
- IC50 [1]: 0.077 nM
- IC50 [2, 3]: 157 nM
